One experiment concerns M. abscessus complex. The experiment can be described thus: MIC against CF bacterial strains (Example 5). As to conditions: Mycobacteroides abscessus, read-out: MIC. Type of experiment: cell-based, Mycobacterium abscessus. As to the method: A range of CF-isolated strains of Mycobacterium avium and Mycobacterium abscessus were included; which allows for understanding of the activity against non-tubercular Mycobacteria (NTM). Two distinct bismuth-thiol compounds were evaluated, including BisEDT and BisBDT. […] The CF-isolates of greater clinical relevance, including both M abscessus spp. and Burkholderia spp., were both consistently found to be much more susceptible to BisEDT and BisBDT.

The next experiment concerns S. aureus ATCC 29213. As to conditions: control strain ATCC 29213; per CLSI M100-S24 or provided by Microbion; cited from earlier work.
For experiment [1], the system named is C. parapsilosis. The experiment can be described thus: Broth microdilution MIC, yeast (Example 11). Type of experiment: cell-based. A general note: Broth dilution looks for growth in wells or tubes with falling amounts of substance.
The subject of another experiment is C. albicans. In words: Broth microdilution MIC, yeast (Example 11). Type of experiment: cell-based. As to conditions: Sensitive.
Another experiment relates to C. glabrata. In words: Broth microdilution MIC, yeast (Example 11). As to conditions: FLU^R. Type of experiment: cell-based.
Another experiment deals with C. tropicalis. The experiment can be described thus: Broth microdilution MIC, yeast (Example 11). As to conditions: FLU^R. Type of experiment: cell-based.
Experiment [2] relates to C. parapsilosis. As to conditions: C. parapsilosis MMX 2323 (ATCC 22019), cited from earlier work.
A further experiment deals with Escherichia coli. As to conditions: E. coli MMX 102 (ATCC 25922); CLSI QC ranges shown in parenthesis; cited from earlier work.
The test system of experiment [3] is Pseudomonas aeruginosa. As to conditions: P. aeruginosa MMX 103 (ATCC 27853); CLSI QC ranges shown in parenthesis; cited from earlier work.
Experiment [4] has as its system Pseudomonas aeruginosa. The experiment can be described thus: Broth microdilution MIC (Example 11).
The subject of another experiment is Acinetobacter baumannii. In words: Broth microdilution MIC (Example 11).
Another experiment deals with E. faecalis. The experiment can be described thus: Broth microdilution MIC (Example 11). As to conditions: VRE Lev^R Cip^R Ery^R.
A further experiment relates to E. faecium. The experiment can be described thus: Broth microdilution MIC (Example 11). As to conditions: VRE vanA Lev^R Cip^R Ery^R.

Values after ≈ are worked out from the molar mass of the structure shown. Like-named read-outs stand apart in the source and are kept apart here.

By MIC is commonly meant the smallest concentration in the dilution series that meets the test's criterion for growth inhibition. Regarding `CC[C@H]1OC(=O)[C@H](C)[C@@H](O[C@H]2C[C@@](C)(OC)[C@@H](O)[C@H](C)O2)[C@H](C)[C@@H](O[C@@H]2O[C@H](C)C[C@H](N(C)C)[C@H]2O)[C@](C)(OC)C[C@@H](C)C(=O)[C@H](C)[C@@H](O)[C@]1(C)O` [Clarithromycin, reference compound], the MIC in the experiment on M. abscessus complex (AMT0130-8, M abscessus/massiliense complex) is 1 µg/mL (≈ 1.34 µM); in the experiment on M. abscessus complex (AMT153-9, M abscessus/massiliense complex), 2 µg/mL (≈ 2.67 µM); with M. abscessus complex (AMT0493-2, M abscessus/massiliense complex, Amikacin resistant), 2 µg/mL (≈ 2.67 µM); in the experiment with M. abscessus complex (ATCC19977, ATCC 19977, M abscessus/massiliense complex, Macrolide resistant (inducible)), greater than 32 µg/mL. Besides, the “Expected MIC: goal (acceptable range)” value in the experiment on S. aureus ATCC 29213 was 0.25 (0.12-0.5) mcg/mL.

In the case of `OC(Cn1cncn1)(Cn1cncn1)c1ccc(F)cc1F` [fluconazole, Fluconazole, reference compound], the MIC in the experiment with C. parapsilosis [1] (Lodderomyces parapsilosis, 24 h, C. parapsilosis MMX 7370, FLU^R, 24 hr, read-out: MIC (converted)) is 32 µg/mL (≈ 104 µM); with C. parapsilosis [1] (Lodderomyces parapsilosis, 24 h, C. parapsilosis MMX 7555, FLU^R, 24 hr, read-out: MIC (converted)), 32 µg/mL (≈ 104 µM); in the experiment on C. parapsilosis [1] (Lodderomyces parapsilosis, 48 h, C. parapsilosis MMX 7370, FLU^R, 48 hr, read-out: MIC (converted)), 32 µg/mL (≈ 104 µM); in the experiment with C. parapsilosis [1] (Lodderomyces parapsilosis, 48 h, C. parapsilosis MMX 7555, FLU^R, 48 hr, read-out: MIC (converted)), 64 µg/mL (≈ 209 µM); in the experiment with C. parapsilosis [1] (Lodderomyces parapsilosis, ATCC22019, 24 h, C. parapsilosis MMX 2323 (ATCC 22019), QC, 24 hr, read-out: MIC (converted)), 2 µg/mL (≈ 6.53 µM); with C. parapsilosis [1] (Lodderomyces parapsilosis, ATCC22019, 48 h, C. parapsilosis MMX 2323 (ATCC 22019), QC, 48 hr, read-out: MIC (converted)), 2 µg/mL (≈ 6.53 µM). Besides, the minimal inhibitory concentration (MIC) with C. albicans (Candida albicans, 24 h, C. albicans MMX 7039, 24 hr, read-out: MIC) is 0.5 µg/mL (≈ 1.63 µM); in the experiment on C. albicans (Candida albicans, 24 h, C. albicans MMX 7055, 24 hr, read-out: MIC) it was 0.25 µg/mL (≈ 0.816 µM); with C. albicans (Candida albicans, 48 h, C. albicans MMX 7039, 48 hr, read-out: MIC) it was 0.5 µg/mL (≈ 1.63 µM); with C. albicans (Candida albicans, 48 h, C. albicans MMX 7055, 48 hr, read-out: MIC), 0.5 µg/mL (≈ 1.63 µM); in the experiment with C. glabrata (Nakaseomyces glabratus, 24 h, C. glabrata MMX 7086, 24 hr, read-out: MIC), 32 µg/mL (≈ 104 µM); with C. glabrata (Nakaseomyces glabratus, 24 h, C. glabrata MMX 7318, 24 hr, read-out: MIC), greater than 64 µg/mL. Also, the MIC in the experiment on C. glabrata (Nakaseomyces glabratus, 48 h, C. glabrata MMX 7086, 48 hr, read-out: MIC) is 64 µg/mL (≈ 209 µM); in the experiment on C. glabrata (Nakaseomyces glabratus, 48 h, C. glabrata MMX 7318, 48 hr, read-out: MIC), greater than 64 µg/mL; in the experiment on C. tropicalis (Candida tropicalis, 24 h, C. tropicalis MMX 7247, 24 hr, read-out: MIC), 64 µg/mL (≈ 209 µM); in the experiment on C. tropicalis (Candida tropicalis, 24 h, C. tropicalis MMX 7248, 24 hr, read-out: MIC), 32 µg/mL (≈ 104 µM); in the experiment on C. tropicalis (Candida tropicalis, 24 h, C. tropicalis MMX 7360, 24 hr, read-out: MIC) it was 64 µg/mL (≈ 209 µM); with C. tropicalis (Candida tropicalis, 48 h, C. tropicalis MMX 7247, 48 hr, read-out: MIC), greater than 64 µg/mL. The minimum inhibitory concentration (MIC) is greater than 64 µg/mL in the experiment with C. tropicalis (Candida tropicalis, 48 h, C. tropicalis MMX 7248, 48 hr, read-out: MIC) and greater than 64 µg/mL with C. tropicalis (Candida tropicalis, 48 h, C. tropicalis MMX 7360, 48 hr, read-out: MIC). Also, the figures for the “MIC, CLSI QC range” value with C. parapsilosis [2] (24 hr) and in the experiment with C. parapsilosis [2] (48 hr) were 0.5 to 4 µg/mL and 1 to 4 µg/mL, respectively.

On to `C[C@@H]1[C@H](O)[C@@H](C)/C=C/C=C/C=C/C=C/C=C/C=C/C=C/[C@H](O[C@@H]2O[C@H](C)[C@@H](O)[C@H](N)[C@@H]2O)C[C@@H]2O[C@](O)(C[C@@H](O)C[C@@H](O)[C@H](O)CC[C@@H](O)C[C@@H](O)CC(=O)O[C@H]1C)C[C@H](O)[C@H]2C(=O)O` [Amphotericin B], for which the minimum inhibitory concentration (MIC) is 0.5 µg/mL (≈ 0.541 µM) in the experiment on C. parapsilosis [1] (C. parapsilosis MMX 2323 (ATCC 22019), QC, 24 hr); 1 µg/mL (≈ 1.08 µM) against C. parapsilosis [1] (C. parapsilosis MMX 2323 (ATCC 22019), QC, 48 hr); 0.5 µg/mL (≈ 0.541 µM) in the experiment with C. parapsilosis [1] (C. parapsilosis MMX 7370, FLU^R, 24 hr); 1 µg/mL (≈ 1.08 µM) in the experiment with C. parapsilosis [1] (C. parapsilosis MMX 7370, FLU^R, 48 hr); 0.25 µg/mL (≈ 0.271 µM) in the experiment on C. albicans (C. albicans MMX 7055, 24 hr); 0.5 µg/mL (≈ 0.541 µM) against C. albicans (C. albicans MMX 7055, 48 hr). For the same compound, the minimal inhibitory concentration (MIC) stood at 0.5 µg/mL (≈ 0.541 µM) against C. glabrata (C. glabrata MMX 7086, 24 hr); 1 µg/mL (≈ 1.08 µM) in the experiment with C. glabrata (C. glabrata MMX 7086, 48 hr); 0.5 µg/mL (≈ 0.541 µM) in the experiment with C. glabrata (C. glabrata MMX 7318, 24 hr); 1 µg/mL (≈ 1.08 µM) against C. glabrata (C. glabrata MMX 7318, 48 hr); 0.5 µg/mL (≈ 0.541 µM) with C. tropicalis (C. tropicalis MMX 7247, 24 hr); 1 µg/mL (≈ 1.08 µM) in the experiment on C. tropicalis (C. tropicalis MMX 7247, 48 hr). Besides, the minimum inhibitory concentration (MIC) against C. tropicalis (C. tropicalis MMX 7248, 24 hr) turned out to be 0.5 µg/mL (≈ 0.541 µM); in the experiment on C. tropicalis (C. tropicalis MMX 7248, 48 hr), 1 µg/mL (≈ 1.08 µM). The “MIC, CLSI QC range” value in the experiment with C. parapsilosis [2] (48 hr) is 0.5 to 4 µg/mL.

Gentamicin: the “CLSI QC range of MIC” value with Escherichia coli is on record as “(0.25-1) μg/mL”; with Pseudomonas aeruginosa [3] it was “(0.5-2) μg/mL”. Also, the MIC against Pseudomonas aeruginosa [4] (P. aeruginosa MMX 103 (ATCC 27853), QC) is 1 µg/mL; against Pseudomonas aeruginosa [4] (P. aeruginosa MMX 1381, MDR, Lev^R, Cip^R, MEM^R, CAZ^R), 8 µg/mL; against Pseudomonas aeruginosa [4] (P. aeruginosa MMX 2562, MDR, Lev^R, Cip^R, MEM^R, CAZ^R) it was 8 µg/mL; with Pseudomonas aeruginosa [4] (P. aeruginosa MMX 3991, MDR, Lev^R, Cip^R, MEM^R, CAZ^R), 4 µg/mL; with Pseudomonas aeruginosa [4] (P. aeruginosa MMX 4654, IMP-7, Lev^R, Cip^R, MEM^R, CAZ^R) it was greater than 64 µg/mL; against Pseudomonas aeruginosa [4] (P. aeruginosa MMX 4697, VIM-2, Lev^R, Cip^R, MEM^R, CAZ^R) it was 4 µg/mL. In addition, the MIC is greater than 64 µg/mL against Acinetobacter baumannii (A. baumannii MMX 2592, MDR, Lev^R, Cip^R, MEM^R, CAZ^R, Gm^R); greater than 64 µg/mL with Acinetobacter baumannii (A. baumannii MMX 2593, MDR, Lev^R, Cip^R, MEM^R, CAZ^R, Gm^R); 0.5 µg/mL with Acinetobacter baumannii (A. baumannii MMX 3372, MDR, Cip^R, MEM^I, CAZ^I); 0.12 µg/mL against Acinetobacter baumannii (A. baumannii MMX 3373, Sensitive); 8 µg/mL against Acinetobacter baumannii (A. baumannii MMX 4651 (NCTC 13304), MDR, OXA-27, Lev^R, Cip^R, MEM^R, CAZ^R, Gm^I); greater than 64 µg/mL in the experiment on E. faecalis (E. faecalis MMX 8960). In addition, the MIC with E. faecalis (E. faecalis MMX 8961) is 8 µg/mL; in the experiment with E. faecalis (E. faecalis MMX 8962) it was greater than 64 µg/mL; in the experiment with E. faecium (E. faecium MMX 485), greater than 64 µg/mL; against E. faecium (E. faecium MMX 752) it was greater than 64 µg/mL.

The values are drawn from patent US11464749B2, “Bismuth-thiol compositions and methods of use” (Microbion Corporation, priority 2018, dated 2022).
